According to patent US12264163B2, “Compounds and methods for treating fibrotic pathologies” (Mayo Foundation for Medical Education and Research, priority 2019, dated 2025):
Counter-ions that a name gives are not always drawn. Like-named read-outs stand apart in the source and are kept apart here.

Key:
[1] = cited from earlier work
YAP/TAZ [2] = test: YAP/TAZ nuclear localization in IMR-90 and other fibroblasts / mesenchymal cells (immunofluorescence); type: cell-based, human; settings: fibroblasts / mesenchymal cells on plastic, 2 hours
Description: Selective agonists of dopamine receptor D1 with varying efficacy inhibit YAP/TAZ nuclear localization; this effect can be overcome by treatment with a DRD1 receptor antagonist (SCH 39166, 3 μM), (Dihydrexidine, 10 μM). IMR-90 cells treated 2 hours prior to fixation. N=4 (****p<0.0001 vs. 0.10% DMSO vehicle control). Scale bar represents 100 μm.
In each case DHX treatment (10 μM) can reverse this effect on YAP/TAZ. IMR-90 cells plated densely onto plastic cell culture plates for 24 hours in media containing 0.1% FBS, treated for 2 hours prior to fixation. N=4 (****p<0.0001 vs. 0.1% DMSO vehicle control), (++++p<0.0001 vs. the respective stimulated agonist ET-1, LPA, or 5-HT). Scale bar represents 100 μm.
Mesenchymal cells derived from lung (IMR-90 and IPF-FBs) hepatic stellate cells (HSC), human adult cardiac fibroblasts, (HACF) and human dermal fibroblasts (HDF) were plated densely (Confluent) or sparsely (Control and all remaining conditions) onto plastic cell culture plates for 24 hours in media containing 0.10% FBS, treated for 2 hours with Rho kinase inhibitor Y27632, adenylate cyclase activator forskolin and DHX. N=4, Cells that were positive for nuclear YAP/TAZ were quantified by automated image analysis.
(§1) Immunofluorescence Microscopy: Cells were plated into 96 well plates (Corning 3603) in their specific growth media and allowed to attach (8 hours). Media was then exchanged for the indicated conditions for each experiment. Cells were fixed in 3.7% formalin (Sigma-Aldrich), permeabilized in 0.25% Triton X-100 (Sigma-Aldrich) and then blocked with 1% BSA for 1 h. Cells or tissue sections were incubated overnight with mouse monoclonal antibody against αSMA (Sigma-Aldrich F3777), and/or a rabbit monoclonal antibody against YAP/TAZ (Cell Signaling D24E4) diluted 1:200 in PBS with 1% BSA. Cells were then washed and exposed to flourescence-conjugated secondary antibodies (Invitrogen) diluted 1:1000 and DAPI (Thermo Fisher Scientific). Images were taken with a Cytation5 (BioTek) microscope. For scoring αSMA positive cells (FIG. 12), an observer blinded to the treatment conditions counted αSMA-positive cells using a visual threshold for bright fibrous staining; a minimum of 200 cells was counted for each condition. YAP/TAZ localization was quantified (FIGS. 6-10, 24-26, and 29-30) using Gen5 (Biotek) software. Images were taken at 4× magnification of both DAPI and YAP/TAZ staining. […] Quantification of double positive (YAP/TAZ and αSMA) cells from lung tissue sections (FIG. 17-21) was performed similarly; however separate thresholds were established for both YAP/TAZ and αSMA. A minimum of 4000 cells was quantified for each mouse.

YAP/TAZ [3] = test: YAP/TAZ nuclear localization in IPF patient-derived lung fibroblasts treated with dopaminergic agonists; type: cell-based, human; settings: 10 μM, 2 hours
In short: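 Fibroblasts from IPF patients (N=4 patient samples) were exposed to dopaminergic agonists at 10 μM for 2 h before fixation. Cells were immunostained for YAP/TAZ with DAPI counterstain and imaged at 4×. Percent nuclear YAP/TAZ localization was quantified by automated image analysis.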

αSMA [4] = test: αSMA intensity (fibroblast activation) in IPF patient-derived lung fibroblasts + TGFβ, dopaminergic agonist library; type: cell-based, human; settings: Homo sapiens, SMA, 72 h, 1 μM + TGFβ, read-out: αSMA intensity (% of DMSO control)
In short: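 Cells under the indicated conditions were immunostained overnight for αSMA (1:200), with fluorescent secondary antibodies and DAPI. Imaged by fluorescence microscopy. […]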

lung fibroblasts = test: Fibroblast proliferation (counting DAPI nuclei); type: cell-based, human; settings: adult lung fibroblasts, 2 ng/mL TGFβ, DAPI nuclei count
Description: IPF fibroblast and Normal lung fibroblast co-culture proliferation. Cell are prelabelled with fluorescent dyes (red and green) and then cocultured at a ratio of about 1:1 in 96 well plates. Cell counts are determined every 24 hours and plotted as a ratio of IPF/HLF cells. In the control wells the IPF cells outgrow and take over the well. N=2.
Proliferation of lung fibroblasts (IMR-90 cells) measured for 4 days in the presence of GPCR agonists ET-1 (100 nM) and LPA (10 μM)+/−10 μM DHX. Cells were fixed and counted with DAPI at the end of each day. N=3 technical triplicates.
Adult lung fibroblasts plated into 96-well plates, stimulated with 2 ng/mL TGFβ and compounds at the indicated concentration. Proliferation determined by fixing and counting DAPI nuclei using a Cytation 5. N=2.
Fibroblasts were stimulated with 2 ng/mL TGFβ and treated with compound 1 (MS-9) at the indicated concentration (0.1 μM, 1 μM, and 10 μM). Proliferation determined by fixing and counting DAPI nuclei using a Cytation.

Collagen I = Collagen I deposition by TGFβ-stimulated adult lung fibroblasts (LI-COR Odyssey); type: cell-based; settings: Homo sapiens, Fibroblast, 2 ng/mL TGFβ 96 hours, compound every 48 hours
Description: (§2) FIG. 72 contains a line plot showing that compound CTC-3 inhibits Collagen I deposition. Adult lung fibroblasts plated into 96-well plates, stimulated with 2 ng/mL TGFβ for 96 hours and treated with the indicated concentration of compounds every 48 hours. Imaging and quantification of Collagen I intensity performed through automation using a LI-COR Odyssey.
as §2, with “73” for “72”, “CTC-6” for “CTC-3”, “Odyssey. (IC50 is 0.4 μM).” for “Odyssey.”
as §2, with “91B” for “72”, “1” for “CTC-3”
Imaging and quantification of collagen I intensity performed through automation using a LI-COR Odyssey.

αSMA [5] = test: Fibroblast activation: αSMA intensity in TGFβ-stimulated adult lung fibroblasts; type: cell-based; settings: Homo sapiens, SMA, 2 ng/mL TGFβ 96 hours, compound every 48 hours
Description: as §2, with “70” for “72”, “fibroblast activation.” for “Collagen I deposition.”, “αSMA” for “Collagen I”, “Cytation 5. (IC50 is 0.3 μM).” for “LI-COR Odyssey.”
as §2, with “71” for “72”, “CTC-6” for “CTC-3”, “fibroblast activation.” for “Collagen I deposition.”, “αSMA” for “Collagen I”, “Cytation 5.” for “LI-COR Odyssey.”
as §2, with “91A” for “72”, “1” for “CTC-3”, “fibroblast activation.” for “Collagen I deposition.”, “αSMA” for “Collagen I”, “Cytation 5.” for “LI-COR Odyssey.”
Alpha-smooth muscle actin (αSMA) staining is a well-defined marker of fibroblast activation observed in wound healing and tissue fibrosis. […] Imaging and quantification of αSMA intensity performed through automation using a Cytation 5.

YAP/TAZ [6] = test: YAP/TAZ nuclear localization in adult lung fibroblasts, dose response (Cytation 5); type: cell-based; settings: Homo sapiens, Fibroblast, 2 h, adult lung fibroblasts sparsely plated, treated 2 hours; read-out: IC50, inhibition of YAP/TAZ nuclear localization
Description: Adult lung fibroblasts (N=2) sparsely plated into 96-well plates. Treated for 2 hours with compounds prior to fixing and immunostaining for YAP/TAZ.
as §1

Oc1ccc(C2CNCCc3c2cc(O)c(O)c3Cl)cc1 (stereo not shown) [Fenoldopam•HCl, Fenoldopam]
oxidation / stability at physiological pH [1]: stable at physiological pH | YAP/TAZ nuclear localization (YAP/TAZ [2]): reduced nuclear localization of YAP/TAZ | Nuclear localization (% of total cells) (YAP/TAZ [3]; IPF-1 patient fibroblasts): 68.1 % of total cells | Nuclear localization (% of total cells) (YAP/TAZ [3]; IPF-2 patient fibroblasts): 50.32 % of total cells | Nuclear localization (% of total cells) (YAP/TAZ [3]; IPF-3 patient fibroblasts): 66.64 % of total cells | Nuclear localization (% of total cells) (YAP/TAZ [3]; IPF-4 patient fibroblasts): 63 % of total cells

CN1CCc2cccc3c2[C@H]1Cc1ccc(O)c(O)c1-3 [(R)-(−)-Apomorphine•HCl, (R)-(−)-Apomorphine]
activity at 1 µM (αSMA [4]; IPF-1 patient fibroblasts): 7.07% | activity at 1 µM (αSMA [4]; IPF-2 patient fibroblasts): 1.17% | activity at 1 µM (αSMA [4]; IPF-3 patient fibroblasts): 0.962% | activity at 1 µM (αSMA [4]; IPF-4 patient fibroblasts): 33.7% | oxidation / stability at physiological pH [1]: oxidized into the inactive quinone | Nuclear localization (% of total cells) (YAP/TAZ [3]; IPF-1 patient fibroblasts): 29.21 % of total cells | Nuclear localization (% of total cells) (YAP/TAZ [3]; IPF-2 patient fibroblasts): 31.97 % of total cells | Nuclear localization (% of total cells) (YAP/TAZ [3]; IPF-3 patient fibroblasts): 27.47 % of total cells | Nuclear localization (% of total cells) (YAP/TAZ [3]; IPF-4 patient fibroblasts): 17.86 % of total cells

NCC1OC(C2CCOCC2)Cc2c1ccc(O)c2O (stereo not shown) [CTC-3]
fibroblast proliferation (lung fibroblasts): inhibits fibroblast proliferation | IC50 (Collagen I): 700 nM | IC50 (αSMA [5]): 300 nM

NCC1OC(c2ccncc2)Cc2c1ccc(O)c2O (stereo not shown) [CTC-6]
IC50 (YAP/TAZ [6]): 62 nM | fibroblast proliferation (lung fibroblasts): inhibits fibroblast proliferation | IC50 (Collagen I): 400 nM | IC50 (αSMA [5]): 100 nM
